Source: patent US20030022926A1, “Method for treating neuropathic pain and pharmaceutical preparation therefor” (priority 2001, published 2003)
Where two headings read alike, the source gives them in different places.

Legend:
[1] = Procedure: (§1) The rats were anesthetized with 4% halothane inhaled concentration in 100% oxygen by face mask. An unilateral percutaneous sciatic nerve block was then performed on the right ligated side. A 25-gauge needle was introduced between the greater trochanter and the ischial tuberosity, both landmarks previously localized by palpation, according to the technique reported by Thalhammer (Thalhammer JG, et al Neurologic evaluation of the rat during sciatic nerve block with lidocaine. Anesthesiology. 1995 Apr;82(4):1013-25). Different mixtures of saline and alpha-2-adrenergic agonist were then injected in a total volume of 0.3 ml.
[2] = tested on: thermal hyperalgesia in rats with partial ligation of sciatic nerve; conditions: ligated side
Source text: (§2) After Institutional Animal Care Committee approval, adult male Wistar rats (Hanovre, weight 150 -180 g) underwent partial sciatic nerve ligation of the right sciatic nerve as described by Seltzer et al (Seltzer 1990). Briefly, under halothane anesthesia, the right sciatic nerve was exposed at high-thigh level and liberated from surrounding tissues. One third to one half of the nerve was then tightly ligated with silicon-treated silk suture (Prolene 7-0) before those muscle and skin layers were closed. The animals were allowed to recover for four to six weeks, lag of time sufficient to develop neuropathic pain features.
(§3) Only the animals which had developed satisfactory Mechanical Allodynia and Thermal Hyperalgesia were used to assess the efficacy of peripheral nerve blockade.
as §1, with “Different mixtures of saline and alpha-2-adrenergic agonist were then injected in a total volume of 0.3 ml.” left out
Values are expressed as mean±SD.

[3] = tested on: phosphorylated cAMP response element binding protein (pCREB)
Experimental: The L4-5 spinal cord segments and the ipsilateral and contralateral sciatic nerve segments at both proximal and mid-thigh levels were removed and postfixed in the same fixative for 3-6 hours. Then all tissues were transferred to 30% sucrose in 0.1 M PB at 40° C. for cryoprotection. The spinal cord segments were cut on a cryostat at a 40 μm thickness. The free-floating sections were collected in PBS. After being pre-treated with 0.3% H 202 and 10% normal goat serum (NGS, Vector Laboratories, Burlingame, Calif.), sections were incubated for 36 hours at 40° C. in a rabbit polyclonal anti-phospho-CREB antibody (1:1,000, New England Biolabs, Beverly, Mass., U.S.A.) diluted in phosphate buffered saline containing 0.3% Triton-×100 (PBS+T) and 3% NGS. Subsequently, the sections were incubated in biotinylated goat anti-rabbit IgG (Vector) and further processed using Elite Vectastain ABC kit (Vector) according to the instructions of the manufacturer. Between each incubation, sections were washed in PBS+T (15 min twice). Finally, the immunoprecipitates were developed by 3,-3′ diaminobenzedine (DAB) and the chromogen was enhanced by the glucose oxidase-nickel-3,-3′ DAB method.
Images of both ipsilateral and contralateral dorsal horns of nerve injured rats or from the dorsal horn of normal rats were captured at ×250 magnification using a CCD camera. In a given area (235 μm×235 μm), which covered the entire LI to LII in depth and was located in the middle one third of the mediolateral extent of the dorsal horn, the number of pixels occupied by pCREB-IR cells on each side was measured automatically using image analysis software (SigmaScan, Jandel Scientific Inc., San Rafael, Calif., U.S.A.). Values are expressed as mean+SEM. Groups were compared using two-way ANOVA followed by Dunnett's or Fishers LSD test. To compare the mean number of the pixels occupied by pCREB-IR cells between two-side dorsal horn, a paired t-test or one-way ANOVA with Student-Newman-Keuls multiple comparison method was used. P<0.05 was considered significant.

[4] = tested on: neuropathic pain
Source text: The patient was then referred to the Pain Clinic to benefit from neuraxial analgesia (either epidural or intrathecal catheter placement). However, long-term spinal catheter is not devoid of side effects, both related to the technique, especially the risk of infection and to the drugs used.

[5] = tested on: mechanical allodynia in rats with partial ligation of sciatic nerve
Source text: A validated animal model of neuropathic pain was used that results from a partial ligation of one sciatic nerve in rat (Seltzer 1990). Nerve ligation and subsequent edema represents an experimental model for mechanisms operative in both nociceptive nerve pain and pain due to partial deafferentation (Asbury A, Fields H. Pain due to peripheral nerve damage: an hypothesis. Neurology 1984; 34: 1587-1590). This model thereby closely mimics the clinical situation found in several cancerous patients.
as §2
Mechanical allodynia was assessed by application of calibrated Von Frey filaments (Stoelting, Wood Dale, Ill.), ranging from 1.2 g to 28.8 g.
The animals were placed on a plastic mesh floor into individual boxes. After accommodation to the environment, the Von Frey filaments were applied vertically to the plantar surface of the ligated hind paw and gently bent 3-4 times over approximately 2 sec. if no response was elicited, a larger filament was applied in the same manner. The filaments were applied in increasing order until a brisk withdrawal or paw flinching occurred, that was considered as a positive response. The filament applications were repeated three times, with five to ten minutes interval between testing. The withdrawal threshold was determined as the mean of the three values.
as §3, §1
A single sciatic block (SB) injection of the following drugs was realized: Saline (n=6), Saline and intramuscular (IM) clonidine 30 μg (n=11), Clonidine 15 μg (n=8), Clonidine 3 μg (n=9). The drug used in the study for peripheral nerve block was: clonidine marketed for clinical use (Catapressan®, Boehringer Ingelheim). The drug was diluted in isotonic saline.
The animals were tested as previously described for both Mechanical Allodynia and Thermal Hyperalgesia at day0 (5 hours after sciatic nerve injection), day 1, day 3, day 7, day 10, day 14 and day 21 post drug injection.
For Mechanical Allodynia, Paw withdrawal threshold (PWT) values were converted to percent of maximum possible effect (% MPE), according to the formula:
% MPE=(post-drug infiltration threshold−baseline post-ligation threshold)/(pre-ligation threshold−baseline post-ligation threshold)×100
Values are expressed as mean±SD. The percent maximum possible effect data were used to calculate the respective ED50 values of clonidine and clonidine combinations using linear regression.

[6] = ipsilateral and contralateral, compared to saline controls (p<0.001)
[7] = one week after single peripheral nerve injection at the injury site, 30 mg as printed

In the case of `Clc1cccc(Cl)c1NC1=NCCN1` [clonidine, N-(2,6-dichlorophenyl)-4,5-dihydro-1H-imidazol-2-amine], the sedation ([1]; after clonidine injection in rats) is reported as “mild transitory sedation”, the “motor blockade or motor deficit” value ([1]; peripheral sciatic nerve block in rats) is reported as “did not result into motor blockade or subsequent motor deficit” and the “effect of peripheral nerve block on thermal hyperalgesia (in words)” value [2] is reported as “alleviated the thermal hyperalgesia in a dose-related manner”. For the same compound, the “mean number of pixels in a fixed area occupied by pCREB-IR cells in the dorsal horn” value [3, 6] was “significantly reduced”, the “mean optical density in a fixed area occupied by pCREB-IR cells in the dorsal horn” value [3, 6] was “significantly reduced” and the “increase in pCREB-IR cells in the ipsilateral dorsal horn” value [3, 7] was “dramatically suppressed”. The “number of pCREB-IR cells in the contralateral dorsal horn” value [3, 7] was “markedly reduced”, the “duration of strong alleviation of neuropathic pain after a single femoral block injection” value ([4]; clonidine alone) was “more than ten” and the “onset of the antihyperalgesic effect” value ([4]; clonidine alone, femoral block) was “four to five”. For the same compound, the “efficacy of clonidine alone versus initial mixture” value ([4]; femoral block, local anesthetic and steroid withdrawn) was “as effective as previous combination”, the “tolerance on repetitive blocks” value ([4]; repetitive peripheral nerve blocks in the cancerous patient) was “without apparition of tolerance” and the “PWT values (Paw Withdrawal threshold)” value ([5]; intramuscular (IM) clonidine 30 μg, D0 (5 h)) was 2.6 ± 1.8 g. The “PWT values (Paw Withdrawal threshold)” value ([5]; intramuscular (IM) clonidine 30 μg, D1) was 7.9 ± 4.2 g, the “PWT values (Paw Withdrawal threshold)” value ([5]; intramuscular (IM) clonidine 30 μg, D3) was 4.3 ± 2.8 g and the “PWT values (Paw Withdrawal threshold)” value ([5]; intramuscular (IM) clonidine 30 μg, D7) was 5.2 ± 2.8 g. For the same compound, the “PWT values (Paw Withdrawal threshold)” value ([5]; intramuscular (IM) clonidine 30 μg, D10) was 3.6 ± 2.3 g, the “PWT values (Paw Withdrawal threshold)” value ([5]; intramuscular (IM) clonidine 30 μg, D14) was 2.0 ± 3.3 g and the “PWT values (Paw Withdrawal threshold)” value ([5]; intramuscular (IM) clonidine 30 μg, D21) was 3.6 ± 1.4 g. For the same compound, the “peak effect on mechanical allodynia, day post injection” value ([5]; peripheral sciatic block 3 to 30 μg, four to six weeks after nerve injury) was 7 days, the “Maximal effect in alleviating Mechanical Allodynia” value (“Maximal effect” below) ([5]; sciatic block 3 μg, at D1) was 34.2±5.1 % MPE and the “Maximal effect” value ([5]; sciatic block 15 μg, at D3) was 40.5±6.4 % MPE. For the same compound, the “Maximal effect” value ([5]; sciatic block 30 μg, at D7) was 76.6±9.2 % MPE, the “PWT values (Paw Withdrawal threshold)” value ([5]; sciatic block (SB) 3 μg, D0 (5 h)) was 4.7 ± 4 g and the “PWT values (Paw Withdrawal threshold)” value ([5]; sciatic block (SB) 3 μg, D1) was 12.0 ± 4 g. The “PWT values (Paw Withdrawal threshold)” value ([5]; sciatic block (SB) 3 μg, D3) was 10.3 ± 5 g, the “PWT values (Paw Withdrawal threshold)” value ([5]; sciatic block (SB) 3 μg, D7) was 8.2 ± 4 g and the “PWT values (Paw Withdrawal threshold)” value ([5]; sciatic block (SB) 3 μg, D10) was 7.0 ± 3 g. The “PWT values (Paw Withdrawal threshold)” value ([5]; sciatic block (SB) 3 μg, D14) was 5.0 ± 2 g, the “PWT values (Paw Withdrawal threshold)” value ([5]; sciatic block (SB) 3 μg, D21) was 4.3 ± 1 g and the “PWT values (Paw Withdrawal threshold)” value ([5]; sciatic block (SB) 15 μg, D0 (5 h)) was 4.8 ± 2 g. The “PWT values (Paw Withdrawal threshold)” value ([5]; sciatic block (SB) 15 μg, D1) was 12.6 ± 6 g, the “PWT values (Paw Withdrawal threshold)” value ([5]; sciatic block (SB) 15 μg, D3) was 12.9 ± 5 g and the “PWT values (Paw Withdrawal threshold)” value ([5]; sciatic block (SB) 15 μg, D7) was 8.8 ± 3 g. The “PWT values (Paw Withdrawal threshold)” value ([5]; sciatic block (SB) 15 μg, D10) was 9.7 ± 4 g, the “PWT values (Paw Withdrawal threshold)” value ([5]; sciatic block (SB) 15 μg, D14) was 6.4 ± 3 g and the “PWT values (Paw Withdrawal threshold)” value ([5]; sciatic block (SB) 15 μg, D21) was 3.7 ± 1 g. For the same compound, the “PWT values (Paw Withdrawal threshold)” value ([5]; sciatic block (SB) 30 μg, D0 (5 h)) was 9.3 ± 6 g, the “PWT values (Paw Withdrawal threshold)” value ([5]; sciatic block (SB) 30 μg, D1) was 14.7 ± 10 g and the “PWT values (Paw Withdrawal threshold)” value ([5]; sciatic block (SB) 30 μg, D3) was 23.7 ± 11 g. The “PWT values (Paw Withdrawal threshold)” value ([5]; sciatic block (SB) 30 μg, D7) was 23.0 ± 7 g, the “PWT values (Paw Withdrawal threshold)” value ([5]; sciatic block (SB) 30 μg, D10) was 11.9 ± 3 g and the “PWT values (Paw Withdrawal threshold)” value ([5]; sciatic block (SB) 30 μg, D14) was 11.4 ± 4 g. For the same compound, the “PWT values (Paw Withdrawal threshold)” value ([5]; sciatic block (SB) 30 μg, D21) was 7.8 ± 3 g, the “effect of single peripheral sciatic block on mechanical allodynia (in words)” value ([5]; single sciatic block, neuropathic rats) was “significantly alleviated mechanical allodynia” and the maximal antiallodynic effect ([5]; systemic injection (IM) 30 μg, at day 0 (5 hours post-sciatic blockade)) was 20.7±5.7 % MPE.
